# Test results: paper PMC11111408, “Concurrent inhibition of oncogenic and wild-type RAS-GTP for cancer therapy” (Nature, 2024)
# “And” between values parts separate entries of the source, which are not always exact repeats. Equal entries are not always repeated.
# How the values were obtained:
# [1] = system: AsPC-1 and NCI-H441 cells; test: pERK (MSD) and proliferation (CTG) in AsPC-1 and NCI-H441 cells, CYPA inhibitor co-treatment or PPIA KO; type: cell-based, human;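 as to Proliferation inhibition with CYPA inhibitor competition: luminescence as % of CYPA inhibitor-only control with 3 mM sanglifehrin A competitor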
# [2] = Cell-to-medium concentration ratio of RMC-7977 (LC–MS/MS bioanalysis of cells and supernatant); type: in vitro ADME, human
# Protocol: Cells were pelleted by centrifugation, and 1 ml of supernatant was reserved and frozen at −80 °C. Cell pellets were washed twice in cold PBS, and pre-weighed tubes containing the cell pellets were weighed prior to snap freezing in a slurry of dry ice and ethanol. […] Cell pellet samples were resuspended in cell medium (diluted as needed), then treated as supernatant. An aliquot of supernatant or resuspended cells (50 µL) was quenched with a 3× volume of acetonitrile containing the internal standard terfenadine (2.5 ng ml^−1). […] The lower limit of quantification was 0.25 ng ml^−1, and the calibration range was 0.25 to 400 ng ml^−1.
# KRAS–PI3Kα [3] = biological target: T1, KRAS–PI3Kα (Homo sapiens, UniProt P01116, G12D); test: Cellular nano-BRET, full length PI3Kα binding to KRAS G12C, G12D, G12V; type: cell-based; details: KRAS G12D, in the presence of CYPA, single replicates;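 also: U2OS cells expressing KRAS4B mutants carrying N-terminal nanoluciferase or HaloTag fusions, with nano-BRET signal measured after inhibitor exposure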
# T1 construct: expressed in transfected cells; host or cells: U2OS
# KRAS–PI3Kα [4] = biological target: T2, KRAS–PI3Kα (Homo sapiens, UniProt P01116, G12C); test: as above; type: cell-based; details: KRAS G12C, in the presence of CYPA, single replicates
# T2 construct: expressed in transfected cells; host or cells: U2OS
# KRAS–PI3Kα [5] = biological target: T3, KRAS–PI3Kα (Homo sapiens, UniProt P01116, G12V); test: as above; type: cell-based; details: KRAS G12V, in the presence of CYPA, single replicates
# T3 construct: expressed in transfected cells; host or cells: U2OS
# [6] = system: NCI-H441, HPAC and SW620 CDX models; test: CDX models, RMC-7977 versus SHP2 and MEK inhibitors; details: three KRAS^G12X models; RMC-7977 10 mg kg^−1 once daily, RMC-4550 20 mg kg^−1 every 2 days, cobimetinib 2.5 mg kg^−1 once daily, alone or in combination
# Protocol: Data are mean ± s.e.m. of 3–18 mice per group.
# Female BALB/c nude mice, NOD SCID and NSG mice 6-8 weeks old from Beijing Vital River/VR Laboratory Animal Co., LTD, Beijing AniKeeper Biotech Co., Ltd., Shanghai Sino-British SIPPR/BK Laboratory Animal Co., LTD and The Jackson Laboratory were used. Animals were housed in polycarbonate cages, in an environmentally monitored, well ventilated room maintained at a constant temperature of 20-26°C and relative humidity of 40-80%. Fluorescent lighting provided illumination approximately 12 hours per day. Each mouse was inoculated at the right flank with tumor cells (2x10^6-1x10^7) in 100-200 µL of media/PBS supplemented with Matrigel (1:1). Treatments were started when the average tumor size reached 100-250 mm^3. […] Mice on studies were weighed and tumor measurements collected twice weekly. Human primary cancer xenograft models were generated using fresh cancer tumor fragments obtained from hospitals with informed consent from the patients in accordance with protocols approved by the Hospital Institutional Ethical Committee (IEC). Tumor fragments were serial-passaged in BABL/c nude mice and then cryopreserved. Cryopreserved tumors were recovered by implantation in BALB/c nude mice and further serial passaged and frozen for study implantation use. Recovered tumor fragments of about 15-30 mm3 in size from each model were implanted into right flanks of Balb/c nude mice. Treatment started when average tumor volume reached 100-250mm^3. For efficacy study, Animals were assigned to study groups using stratified randomization based upon their tumor volumes (n=3-10/group). […] Animals were treated for 28 days (or up to 110 for selected models) or an earlier time if tumor burden reached humane endpoint. Mean ± s.e.m was plotted in the waterfall plots. The dashed line on waterfall plot indicates a 10% reduction in tumor volume from baseline. […] Body weights were collected twice a week during the study. For single-dose pharmacokinetic/pharmacodynamics (PK/PD) study, mice were randomized into treatment groups when mean tumor volume reached 400-600 mm^3.
# KRAS^G12S = KRAS^G12S (Homo sapiens, UniProt P01116+P62937, G12S); test: Cellular RAS–RAF (CRAF RBD) disruption, nano-BRET in U2OS cells; type: cell-based; parameters: expressed in transfected cells; host or cells: U2OS PPIA-KO; details: (95% CI)
# Description: KRAS4B, or other small GTPases, containing the indicated mutations were cloned in pNLF-N or pHTN plasmids for expression with an N-terminal nanoluciferase or HaloTag fusion, respectively. […] The following day, the cells were collected by Trypsin and reseeded in a white tissue culture-treated 96-well plate in OptiMem phenol red-free medium (Gibco) containing 4% FBS and a 1:1,000 dilution of NanoBRET 618 HaloTag ligand (Promega). For endpoint concentration response curves, vivazine nanoluciferase substrate was added to 1× concentration in OptiMem phenol red-free medium with 4% FBS. Varying concentrations of inhibitor were added and incubated for 1 or 4 h before the nano-BRET signal was measured on a Perkin Elmer Envision plate reader. For kinetic assays, endurazine nanoluciferase substrate was used in place of vivazine, and the plate was placed in a Cytation5 multi-mode reader pre-equilibrated to 37 °C and 5% CO2.
# CYPA = biological target: T4, CYPA (Homo sapiens, UniProt P62937); test: CYPA binding affinity (Kd1), SPR; details: steady state, (95% CI)
# T4 construct: His6-TEV-AviTag-CYPA (full-length); His6-TEV (N); made in house; host or cells: BL21(DE3) Escherichia coli
# Protocol: The binding affinity of compounds for CYPA (Kd1) was assessed by SPR on a Biacore 8K instrument as previously described.
smiles,measurement,setting,value
CCn1c(-c2cc(N3CCN(C4CC4)CC3)cnc2[C@H](C)OC)c2c3cc(ccc31)-c1csc(n1)C[C@H](NC(=O)[C@H]1[C@@H]3COC[C@@H]31)C(=O)N1CCC[C@H](N1)C(=O)OCC(C)(C)C2 [RMC-7977],activity at 0.01111 µM,"[1]; Homo sapiens, NCI-H441, read-out: Proliferation inhibition in PPIA KO cells treated with RMC-7977, NCI-H441, 11.11 nM",24.4%
same,activity at 0.03333 µM,"[1]; Homo sapiens, NCI-H441, read-out: Proliferation inhibition in PPIA KO cells treated with RMC-7977, NCI-H441, 33.33 nM",22.2%
same,activity at 0.1 µM,"[1]; Homo sapiens, NCI-H441, read-out: Proliferation inhibition in PPIA KO cells treated with RMC-7977, NCI-H441, 100.00 nM",23.6%
same,activity at 0.3 µM,"[1]; Homo sapiens, NCI-H441, read-out: Proliferation inhibition in PPIA KO cells treated with RMC-7977, NCI-H441, 300.00 nM",27.5%
same,activity at 5.08 pM,"[1]; Homo sapiens, NCI-H441, read-out: Proliferation inhibition in PPIA KO cells treated with RMC-7977, NCI-H441, […]",120%
same,activity at 0.00041 µM,"[1]; Homo sapiens, NCI-H441, read-out: pERK inhibition in PPIA KO cells treated with RMC-7977, NCI-H441, 0.41 nM",88.1%
same,activity at 0.0037 µM,"[1]; Homo sapiens, NCI-H441, read-out: pERK inhibition in PPIA KO cells treated with RMC-7977, NCI-H441, 3.70 nM",11.8%
same,Proliferation inhibition with CYPA inhibitor competition,"[1]; NCI-H441, RMC-7977 0.0152 nM",112.235 and 120.202
same,pERK signal remaining (% of control) with CYPA inhibitor competition,"[1]; NCI-H441, RMC-7977 0.0152 nM",101.09 and 141.742 and 99.9715 and 108.212
same,Proliferation inhibition with CYPA inhibitor competition,"[1]; NCI-H441, RMC-7977 0.0457 nM",127.307 and 133.477
same,pERK signal remaining (% of control) with CYPA inhibitor competition,"[1]; NCI-H441, RMC-7977 0.0457 nM",116.541 and 138.344 and 94.9151 and 96.9475
same,Proliferation inhibition with CYPA inhibitor competition,"[1]; NCI-H441, RMC-7977 0.41 nM",83.6742 and 95.5735 and 83.4726 and 112.168
same,Proliferation inhibition with CYPA inhibitor competition,"[1]; NCI-H441, RMC-7977 3.70 nM",34.5277 and 37.2472 and 40.6838 and 40.7762
same,pERK signal remaining (% of control) with CYPA inhibitor competition,"[1]; NCI-H441, RMC-7977 3.70 nM",11.9888 and 19.4005 and 10.392 and 10.3218
same,Proliferation inhibition with CYPA inhibitor competition,"[1]; NCI-H441, RMC-7977 11.11 nM",26.6151 and 22.9193 and 35.0508 and 37.4802
same,Proliferation inhibition with CYPA inhibitor competition,"[1]; NCI-H441, RMC-7977 33.33 nM",29.0347 and 22.8651 and 29.7232 and 34.4423
same,Proliferation inhibition with CYPA inhibitor competition,"[1]; NCI-H441, RMC-7977 100.00 nM",28.8791 and 27.2758 and 27.7958 and 31.2386
same,Proliferation inhibition with CYPA inhibitor competition,"[1]; NCI-H441, RMC-7977 300.00 nM",32.3111 and 29.0775 and 27.5922 and 25.4872
same,LC/MS bioanalysis of cells treated with RMC-7977,"[2]; AsPC-1, RMC-7977 10 nM",161.5 and 241.3 and 143.0
same,LC/MS bioanalysis of cells treated with RMC-7977,"[2]; AsPC-1, RMC-7977 100 nM",76.8 and 68.8 and 89.6
same,LC/MS bioanalysis of cells treated with RMC-7977,"[2]; AsPC-1, RMC-7977 1000 nM",50.6 and 44.9
same,Cellular nano-BRET of PI3K⍺ (full-length) binding to KRAS,KRAS–PI3Kα [3]; RMC-7977 12.346 nM,15.8391 and 14.8964 and 15.0849 and 14.7399 and 14.2306 and 14.9536
same,Cellular nano-BRET of PI3K⍺ (full-length) binding to KRAS,KRAS–PI3Kα [3]; RMC-7977 37.037 nM,13.3166 and 13.8897 and 13.2531 and 13.6566 and 13.0465 and 13.0111
same,Cellular nano-BRET of PI3K⍺ (full-length) binding to KRAS,KRAS–PI3Kα [3]; RMC-7977 111.111 nM,12.9631 and 12.8542 (2×) and 12.751 and 12.7145 and 12.5362
same,Cellular nano-BRET of PI3K⍺ (full-length) binding to KRAS,KRAS–PI3Kα [3]; RMC-7977 333.333 nM,12.4418 and 12.5115 and 12.0796 and 12.2384 and 12.3217 and 12.5478
same,Cellular nano-BRET of PI3K⍺ (full-length) binding to KRAS,KRAS–PI3Kα [3]; RMC-7977 1000.000 nM,12.9103 and 12.8341 and 12.4299 and 12.848 and 12.6569 and 12.4165
same,Cellular nano-BRET of PI3K⍺ (full-length) binding to KRAS,KRAS–PI3Kα [4]; RMC-7977 4.115 nM,18.9 and 18.4569 and 18.8341 and 18.1839 and 17.8374 and 17.916
same,Cellular nano-BRET of PI3K⍺ (full-length) binding to KRAS,KRAS–PI3Kα [4]; RMC-7977 12.346 nM,15.8416 and 16.2344 and 15.8041 and 16.4517 and 15.615 and 15.4215
same,Cellular nano-BRET of PI3K⍺ (full-length) binding to KRAS,KRAS–PI3Kα [4]; RMC-7977 37.037 nM,13.5244 and 14.2699 and 13.7436 and 13.7375 and 14.0918 and 13.7581
same,Cellular nano-BRET of PI3K⍺ (full-length) binding to KRAS,KRAS–PI3Kα [4]; RMC-7977 111.111 nM,13.3801 and 13.6296 and 13.7851 and 13.3968 and 13.4702 and 13.5585
same,Cellular nano-BRET of PI3K⍺ (full-length) binding to KRAS,KRAS–PI3Kα [4]; RMC-7977 333.333 nM,13.479 and 13.457 and 13.6054 and 13.4472 and 13.3596 and 13.441
same,Cellular nano-BRET of PI3K⍺ (full-length) binding to KRAS,KRAS–PI3Kα [4]; RMC-7977 1000.000 nM,13.0371 and 13.4964 and 13.2247 and 13.6424 and 13.499 and 13.5185
same,Cellular nano-BRET of PI3K⍺ (full-length) binding to KRAS,KRAS–PI3Kα [5]; RMC-7977 4.115 nM,19.5671 and 18.6162 and 18.8909 and 19.2958
same,Cellular nano-BRET of PI3K⍺ (full-length) binding to KRAS,KRAS–PI3Kα [5]; RMC-7977 12.346 nM,17.0686 and 16.4926 and 17.3848 and 16.3061 and 17.5986 and 16.6607
same,Cellular nano-BRET of PI3K⍺ (full-length) binding to KRAS,KRAS–PI3Kα [5]; RMC-7977 37.037 nM,14.0491 and 14.079 and 13.7071 and 13.4685 and 14.6716 and 13.9571
same,Cellular nano-BRET of PI3K⍺ (full-length) binding to KRAS,KRAS–PI3Kα [5]; RMC-7977 111.111 nM,13.3096 and 12.8133 and 13.2135 and 13.4943 and 13.3044 and 13.1946
same,Cellular nano-BRET of PI3K⍺ (full-length) binding to KRAS,KRAS–PI3Kα [5]; RMC-7977 333.333 nM,13.0302 and 13.2252 and 12.7334 and 12.2876 and 12.5409 and 12.8603
same,Cellular nano-BRET of PI3K⍺ (full-length) binding to KRAS,KRAS–PI3Kα [5]; RMC-7977 1000.000 nM,12.5669 and 12.7724 and 12.7825 and 12.8803 and 12.1527 and 13.0533
same,anti-tumour activity,[6],deep regressions in all three models
same,EC50,KRAS^G12S,15.1 nM
same,Kd,CYPA,195 nM
